Patent publication US8669249B2, “Poly (ADP-ribose) polymerase (PARP) inhibitors” (Takeda Pharmaceutical Company Limited, priority 2009, dated 2014)

How the values were obtained:
[1] = biological target: T1, catalytic domain of Human PARP (Homo sapiens, UniProt P09874); test: Biacore surface plasmon resonance affinity assay; type: binding; conditions: pKD=-log10 KD, KD in mol/L; Biacore T100, 25° C.; read-out: pKD (converted)
T1 construct: The catalytic domain of Human PARP was cloned and prepared; made in house
T1 sequence (P09874 788-1014 limits assumed): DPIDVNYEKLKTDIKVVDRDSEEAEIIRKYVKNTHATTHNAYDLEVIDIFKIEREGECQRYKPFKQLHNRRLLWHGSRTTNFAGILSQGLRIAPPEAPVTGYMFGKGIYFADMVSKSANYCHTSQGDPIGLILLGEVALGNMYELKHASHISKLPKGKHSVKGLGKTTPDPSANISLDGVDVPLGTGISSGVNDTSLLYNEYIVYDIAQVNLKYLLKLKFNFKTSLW
How it was run: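 Binding at 25° C on Biacore T100: 1 min compound association then 5 min dissociation (50 μL/min) over immobilized PARP catalytic domain, buffer HBS-P plus 1% DMSO, 0.5 mM TCEP, 5 mM MgCl2, 2-fold dilution series. KD derived as koff/kon from fitted association and dissociation phases.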

Jurkat cell line = test: PARP cellular chemopotentiation assay (MTS, with/without TMZ); type: cell-based; conditions: Chemopotentiation factor: ratio of EC50 values of Jurkat cells co-treated without and with 100 μM TMZ; 96 hours
Method: Potentiation Factor (PF50) Determination from PARP Cellular Chemopotentiation Assay
Jurkat cell line was maintained according to the supplier (American Type Culture Collection (Rockville, Md.)). Cells were seeded in 96-well tissue culture microplates at 10,000 cells per well and cultured for 24 hours prior to addition of compounds, TMZ (Temozolomide) or DMSO (dimethylsulfoxide) vehicle. After 96 hours of treatment, the conversion of MTS ([3-(4,5-dimethylthiazol-2-yl)-5-(3-carboxymethoxyphenyl)-2-(4-sulfophenyl)-2H-tetrazolium, inner salt], Promega, Madison, Wis.) by metabolically active cells was determined through measuring the OD490 nm with a Spectramax microplate reader (Molecular Devices, San Diego, Calif.). To generate concentration-response curves, cells were treated in duplicate with a range of serial compound dilutions (final DMSO concentration was 0.5%) in the absence or presence of 100 μM TMZ chemoreagent. The percentage of viable cells per well was calculated by correction for background and normalizing against DMSO-treated cells. EC50 values for inhibition of cell viability were calculated using XLfit4 MicroSoft Excel curve-fitting software. Chemopotentiation factor PF50 was calculated as the ratio of EC50 values of cells co-treated without and with TMZ, respectively.

PARP = biological target: T2, PARP (Homo sapiens, UniProt P09874); test: PARP ELISA (ELISA-based colorimetric PARP/Apoptosis Assay kit, Trevigen); type: biochemical; conditions: pIC50=-log10 IC50, IC50 in mol/L; inhibition of PARP catalytic activity
T2 construct: purchased Trevigen 4684-096-K HT (kit); 4684-096-01 (PARP enzyme)
T2 sequence (P09874 whole entry): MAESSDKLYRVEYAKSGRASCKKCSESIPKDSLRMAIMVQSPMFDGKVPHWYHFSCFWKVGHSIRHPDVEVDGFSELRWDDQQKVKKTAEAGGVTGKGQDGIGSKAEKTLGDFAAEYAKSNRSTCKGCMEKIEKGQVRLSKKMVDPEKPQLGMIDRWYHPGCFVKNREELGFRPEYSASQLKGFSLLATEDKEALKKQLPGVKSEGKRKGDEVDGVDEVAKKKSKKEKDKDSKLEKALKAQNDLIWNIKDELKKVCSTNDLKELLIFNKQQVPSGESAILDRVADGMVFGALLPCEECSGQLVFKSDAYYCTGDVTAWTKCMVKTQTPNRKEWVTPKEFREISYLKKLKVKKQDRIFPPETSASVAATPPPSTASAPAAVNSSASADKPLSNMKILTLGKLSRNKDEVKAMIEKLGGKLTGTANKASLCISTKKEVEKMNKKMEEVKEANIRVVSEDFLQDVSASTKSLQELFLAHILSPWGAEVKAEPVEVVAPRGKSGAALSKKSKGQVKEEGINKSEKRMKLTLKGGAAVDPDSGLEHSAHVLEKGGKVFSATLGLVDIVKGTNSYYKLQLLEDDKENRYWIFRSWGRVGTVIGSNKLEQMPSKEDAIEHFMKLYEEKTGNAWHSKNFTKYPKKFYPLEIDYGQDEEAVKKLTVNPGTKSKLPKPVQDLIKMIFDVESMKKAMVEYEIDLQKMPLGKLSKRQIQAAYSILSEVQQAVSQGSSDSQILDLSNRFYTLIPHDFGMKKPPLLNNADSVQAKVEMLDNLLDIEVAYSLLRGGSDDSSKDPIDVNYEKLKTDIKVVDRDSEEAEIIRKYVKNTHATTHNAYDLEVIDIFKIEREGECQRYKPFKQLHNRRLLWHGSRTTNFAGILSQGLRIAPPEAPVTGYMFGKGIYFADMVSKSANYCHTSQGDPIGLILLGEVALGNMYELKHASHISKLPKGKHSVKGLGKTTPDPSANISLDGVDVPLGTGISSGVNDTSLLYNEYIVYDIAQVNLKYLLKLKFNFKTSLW
How it was run: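 Quenched after 10 min catalysis by aspiration and four PBS/0.1% Triton X-100 washes. Poly(ADP-ribose) detected with mouse anti-PAR monoclonal antibody, goat anti-mouse IgG-HRP and HRP substrate; colorimetric signal proportional to PARP catalytic activity.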

Row | Compound | Kd [1] | IC50 (PARP) | PF50 (Jurkat cell line)
1 | CC1Oc2ccc(CN3CCc4cc(Br)ccc4C3)cc2NC1=O (centres unmarked) [Compound 81, 6-((6-Bromo-3,4-dihydroisoquinolin-2(1H)-yl)methyl)-2-methyl-2H-benzo[b][1,4]oxazin-3(4H)-one] | 12.6 to 100 nM | – | ≦0.9
2 | CC1Oc2cc(Cl)c(CN3CCN(c4ccccc4)CC3)cc2NC1=O (centres unmarked) [Compound 89, 7-Chloro-2-methyl-6-((4-phenylpiperazin-1-yl)methyl)-2H-benzo[b][1,4]oxazin-3(4H)-one] | 1260 to 10000 nM | – | 1.0-1.9
3 | O=C1Nc2cc(CN3CC=C(c4ccc(Cl)cc4)CC3)ccc2OC1F (centres unmarked) [Compound 97, 6-((4-(4-Chlorophenyl)-5,6-dihydropyridin-1(2H)-yl)methyl)-2-fluoro-2H-benzo[b][1,4]oxazin-3(4H)-one] | ≤ 10 nM | – | ≦0.9
4 | O=C1Nc2cc(CN3CC=C(c4ccc(F)cc4)CC3)ccc2OC1F (centres unmarked) [Compound 101, 2-Fluoro-6-((4-(4-fluorophenyl)-5,6-dihydropyridin-1(2H)-yl)methyl)-2H-benzo[b][1,4]oxazin-3(4H)-one] | ≤ 10 nM | – | 1.0-1.9
5 | Cc1ccc(C2CCN(CCc3ccc4c(c3)NC(=O)CO4)CC2)cc1 [Compound 124, 6-(2-(4-p-tolylpiperidin-1-yl)ethyl)-2H-benzo[b][1,4]oxazin-3(4H)-one] | 126 to 1000 nM | – | 1.0-1.9
6 | CC1Oc2ccc(CN(C)CC(=O)N3CCN(c4ccccc4)CC3)cc2NC1=O (centres unmarked) [Compound 139, 2-Methyl-6-((methyl(2-oxo-2-(4-phenylpiperazin-1-yl)ethyl)amino)methyl)-2H-benzo[b][1,4]oxazin-3(4H)-one] | 1260 to 10000 nM | – | 1.0-1.9
7 | COc1cc(CN2CCC(c3ccccc3)CC2)cc2c1OC(C)C(=O)N2 (centres unmarked) [Compound 157, 8-Methoxy-2-methyl-6-((4-phenylpiperidin-1-yl)methyl)-2H-benzo[b][1,4]oxazin-3(4H)-one] | 12.6 to 100 nM | – | 1.0-1.9
8 | COc1cc(CN2CC=C(c3ccccc3)CC2)cc2c1OC(C)C(=O)N2 (centres unmarked) [Compound 158, 8-Methoxy-2-methyl-6-((4-phenyl-5,6-dihydropyridin-1(2H)-yl)methyl)-2H-benzo[b][1,4]oxazin-3(4H)-one] | 12.6 to 100 nM | – | 1.0-1.9
9 | CC1Oc2c(Cl)cc(CN3CC=C(c4ccc(Cl)cc4)CC3)cc2NC1=O (centres unmarked) [Compound 166, 8-Chloro-6-((4-(4-chlorophenyl)-5,6-dihydropyridin-1(2H)-yl)methyl)-2-methyl-2H-benzo[b][1,4]oxazin-3(4H)-one] | – | ≥ 126 nM | 1.0-1.9
10 | CC1Oc2c(Cl)cc(CN3CCN(c4ccc(Cl)cc4)CC3)cc2NC1=O (centres unmarked) [Compound 167, 8-Chloro-6-((4-(4-chlorophenyl)piperazin-1-yl)methyl)-2-methyl-2H-benzo[b][1,4]oxazin-3(4H)-one] | – | 39.8 to 100 nM | ≦0.9
11 | CNC(=O)CN1CCN(Cc2ccc3c(c2)NC(=O)C(C)O3)CC1 (centres unmarked) [Compound 171, N-Methyl-2-(4-((2-methyl-3-oxo-3,4-dihydro-2H-benzo[b][1,4]oxazin-6-yl)methyl)piperazin-1-yl)acetamide] | 126 to 1000 nM | – | ≦0.9
12 | CCC1Oc2ccc(CN3CCC(c4ccccc4)CC3)cc2NC1=O (centres unmarked) [Compound 192, 2-Ethyl-6-((4-phenylpiperidin-1-yl)methyl)-2H-benzo[b][1,4]oxazin-3(4H)-one] | ≤ 10 nM | – | 1.0-1.9
13 | CC1Oc2ccc(CN3CCC(c4ccc(C(F)(F)F)cc4)CC3)cc2NC1=O (centres unmarked) [Compound 213, 2-Methyl-6-((4-(4-(trifluoromethyl)phenyl)piperidin-1-yl)methyl)-2H-benzo[b][1,4]oxazin-3(4H)-one] | 126 to 1000 nM | – | 1.0-1.9
14 | CC1Oc2ccc(CN3CCN(c4ccc(C(=O)NCC5CC5)cc4)CC3)cc2NC1=O (centres unmarked) [Compound 226, N-(Cyclopropylmethyl)-4-(4-((2-methyl-3-oxo-3,4-dihydro-2H-benzo[b][1,4]oxazin-6-yl)methyl)piperazin-1-yl)benzamide] | – | 39.8 to 100 nM | ≦0.9
15 | CC1Oc2ccc(CN3Cc4ccc(NC(=O)c5ccccc5)cc4C3)cc2NC1=O (centres unmarked) [Compound 244, N-(2-((2-Methyl-3-oxo-3,4-dihydro-2H-benzo[b][1,4]oxazin-6-yl)methyl)isoindolin-5-yl)benzamide] | 1260 to 10000 nM | – | ≦0.9
16 | CC1Oc2c(F)cc(CN3CCN(c4ccc(C#N)cc4)CC3)cc2NC1=O (centres unmarked) [Compound 266, 4-(4-((8-Fluoro-2-methyl-3-oxo-3,4-dihydro-2H-benzo[b][1,4]oxazin-6-yl)methyl)piperazin-1-yl)benzonitrile] | ≤ 10 nM | – | ≦0.9

More lines, main results first:

Row | Kd [1] | IC50 (PARP) | Compound | PF50 (Jurkat cell line)
17 | – | ≥ 126 nM | CC(=O)c1ccc(N2CCN(Cc3ccc4c(c3)NC(=O)C(C)O4)CC2)cc1 (centres unmarked) [Compound 218, 6-((4-(4-Acetylphenyl)piperazin-1-yl)methyl)-2-methyl-2H-benzo[b][1,4]oxazin-3(4H)-one] | ≦0.9
18 | ≤ 10 nM | – | Cc1ccc(N2CCN(Cc3ccc4c(c3)NC(=O)C(C)O4)CC2)nc1 (centres unmarked) [Compound 229, 2-Methyl-6-((4-(5-methylpyridin-2-yl)piperazin-1-yl)methyl)-2H-benzo[b][1,4]oxazin-3(4H)-one] | 1.0-1.9
19 | 12.6 to 100 nM | – | CC1Oc2ccc(CN3CCN(c4ccc(C(F)(F)F)cn4)CC3)cc2NC1=O (centres unmarked) [Compound 230, 2-Methyl-6-((4-(5-(trifluoromethyl)pyridin-2-yl)piperazin-1-yl)methyl)-2H-benzo[b][1,4]oxazin-3(4H)-one] | 1.0-1.9
20 | – | ≤ 31.6 nM | CCNC(=O)c1ccc(N2CCN(Cc3ccc4c(c3)NC(=O)[C@H](C)O4)CC2)cc1 [Compound 249, (S)-N-Ethyl-4-(4-((2-methyl-3-oxo-3,4-dihydro-2H-benzo[b][1,4]oxazin-6-yl)methyl)piperazin-1-yl)benzamide] | 1.0-1.9
21 | – | ≤ 31.6 nM | CCNC(=O)c1ccc(N2CCN(Cc3ccc4c(c3)NC(=O)[C@@H](C)O4)CC2)cc1 [Compound 250, (R)-N-Ethyl-4-(4-((2-methyl-3-oxo-3,4-dihydro-2H-benzo[b][1,4]oxazin-6-yl)methyl)piperazin-1-yl)benzamide] | 2.0-9.9
22 | 126 to 1000 nM | – | CCOC(=O)c1ccc(N2CCN(Cc3cc(C)c4c(c3)NC(=O)C(C)O4)CC2)nc1 (centres unmarked) [Compound 256, Ethyl 6-(4-((2,8-dimethyl-3-oxo-3,4-dihydro-2H-benzo[b][1,4]oxazin-6-yl)methyl)piperazin-1-yl)nicotinate] | 1.0-1.9
23 | – | ≤ 31.6 nM | CCNC(=O)c1ccc(N2CCN(Cc3cc(C)c4c(c3)NC(=O)C(C)O4)CC2)cc1 (centres unmarked) [Compound 258, 4-(4-((2,8-Dimethyl-3-oxo-3,4-dihydro-2H-benzo[b][1,4]oxazin-6-yl)methyl)piperazin-1-yl)-N-ethylbenzamide] | ≧10.0
24 | ≤ 10 nM | – | CNC(=O)c1ccc(N2CCN(Cc3cc(C)c4c(c3)NC(=O)C(C)O4)CC2)nc1 (centres unmarked) [Compound 260, 6-(4-((2,8-Dimethyl-3-oxo-3,4-dihydro-2H-benzo[b][1,4]oxazin-6-yl)methyl)piperazin-1-yl)-N-methylnicotinamide] | 2.0-9.9
25 | ≤ 10 nM | – | Cc1cc(CN2CCN(c3ccc(C(=O)NC4CC4)cn3)CC2)cc2c1OC(C)C(=O)N2 (centres unmarked) [Compound 262, N-Cyclopropyl-6-(4-((2,8-dimethyl-3-oxo-3,4-dihydro-2H-benzo[b][1,4]oxazin-6-yl)methyl)piperazin-1-yl)nicotinamide] | 2.0-9.9
26 | – | 79.4 nM | CCOC(=O)c1ccc(N2CCN(Cc3cc(Cl)c4c(c3)NC(=O)C(C)O4)CC2)cc1 (centres unmarked) [Compound 306, Ethyl 4-(4-((8-chloro-2-methyl-3-oxo-3,4-dihydro-2H-benzo[b][1,4]oxazin-6-yl)methyl)piperazin-1-yl)benzoate] | 1.3
27 | – | 20 nM | CNC(=O)c1ccc(N2CCN(Cc3cc(Cl)c4c(c3)NC(=O)C(C)O4)CC2)cc1 (centres unmarked) [Compound 308, 4-(4-((8-Chloro-2-methyl-3-oxo-3,4-dihydro-2H-benzo[b][1,4]oxazin-6-yl)methyl)piperazin-1-yl)-N-methylbenzamide] | 6.3
28 | – | 5.01 nM | CCNC(=O)c1ccc(N2CCN(Cc3cc(Cl)c4c(c3)NC(=O)C(C)O4)CC2)cc1 (centres unmarked) [Compound 309, 4-(4-((8-Chloro-2-methyl-3-oxo-3,4-dihydro-2H-benzo[b][1,4]oxazin-6-yl)methyl)piperazin-1-yl)-N-ethylbenzamide] | 5.2
